Type in all cases: in vivo
The test system of data set [1] is Pyricularia oryzae. As to the kind of experiment: whole plant or invertebrate. The settings on record: soil, read-out: Control value (number of lesions at the second leaf).
For data set [2], the system named is Pyricularia oryzae. The data set can be described thus: whole plant or invertebrate. The note with it: foliar, read-out: Control value (number of lesions at the second leaf).
For data set [3], the system named is cucumber bacterial spot disease. The data set can be described thus: Activity against cucumber bacterial spot disease (Example 17). The settings on record: cucumber cv. Natsusuzumi; wettable powder diluted 6666-fold, 20 mL per pot absorbed in the soil; 28 days after settled planting. How it is done:
Wettable powders of the example compound 1-134 were prepared in accordance with the below-mentioned Preparation Example 1. The wettable powders were diluted to 6666-fold with water, and then 20 mL of the diluted solution per pot was applied to cucumber (cultivar: Natsusuzumi) cultivated to the third leaf stage in pots by making the diluted solution to be absorbed in the soil, and then the cucumber was subjected to settled planting. 28 days after the settled planting, the number of lesions formed at the 11th true leaves to the 20th true leaves were counted. The control value was calculated from the obtained number of lesions in accordance with the below-mentioned mathematical formula. Control value=((the number of lesions at untreated plants −the number of lesions at treated plants)/the number of lesions at untreated plants)×100

A further data set has as its system rice (cultivar: Jikkoku). The data set can be described thus: Barrier to growth of rice (phytotoxicity, Example 18). The settings on record: untreated plant length set as 100; 0.2 mg/mL acetone solution diluted 10-fold, 0.25 mL per 1 mL of soil; first leaf stage; comparative compounds (Table 38). How it is done:
The acetone solutions of each example compound and compounds described in the prior art documents shown in the below-mentioned Table 38 (hereinafter, referred to as compounds of Comparative Examples 1 to 5, respectively) were prepared such that the content thereof became 0.2 mg/mL, and then diluted to 10-fold with water to be subjected to conducting test. 0.25 mL of the diluted solution per 1 mL of the soil was made to be absorbed in the soil. Then, rice seeds (cultivar: Jikkoku) subjected to forcing to germination were seeded in the soil to be cultivated in plant cultivation chambers. The plant length of the rice grown to the first leaf stage was measured, and the ratio of the plant length, relative to the untreated plant length set as 100, (hereinafter, referred to as “the ratio of plant length relative to untreated plant length”) was calculated. The presence or absence of the barrier to growth was determined from the calculated ratio.

The test system of another data set is wheat brown rust. The data set can be described thus: Activity against wheat brown rust (Example 14). The settings on record: wettable powder (Preparation Example 1) diluted 1000-fold, sprayed twice at 1 L/m^2, examined approx. 4 weeks after second spraying. How it is done: Wettable powders of the example compound 1-135 were prepared in accordance with the below-mentioned Preparation Example 1, followed by diluting the wettable powders to 1000-fold with water to prepare spraying liquids. The prepared spraying liquid was sprayed onto wheat twice at the blooming stage and 10 days prior to the blooming stage at a liquid volume of 1 L/m^2. The lesions on the flag leaf were examined in accordance with the below-mentioned indexes approximately 4 weeks after the second spraying application. The severity was calculated based on the indexes, and the control value was calculated from the obtained severity in accordance with the below-mentioned mathematical formula.
0: No lesions were observed.
1: 1 to 3 lesions were observed.
2: 4 to 10 lesions were observed.
3: 11 to 20 lesions were observed.
4: 21 or more lesions were observed, and the area of lesions was less than half of the leaf surface.
5: 21 or more lesions were confirmed, and the area of lesions was half or more of the leaf surface. Control value=((the severity at untreated plants −the severity at treated plants)/the severity at untreated plants)×100

Experimental findings from patent publication US12156523B2 (priority 2017, dated 2024) are described below.

Consider `CC(C)Oc1cccc(NC(=O)c2cc(F)nc(F)c2)c1` [Example 1-134], for which the pest or weed control at 10 µg/mL in the data set with Pyricularia oryzae [1] is at least 80%. In addition, in the data set with Pyricularia oryzae [2], the pest or weed control at 25 ppm is at least 80% and the pest or weed control at 200 ppm is at least 80%. Also, the “Control value (number of lesions at 11th to 20th true leaves)” value in data set [3] is recorded as at least 60.
As for `C#CCOC(=O)c1cc(Cl)nc(Cl)c1` [Comparative Example 2], the “Ratio of plant length relative to untreated plant length” value in the data set with rice (cultivar: Jikkoku) is 52.
As for `COc1cccc(NC(=O)c2cc(F)nc(F)c2)c1` [Example 1-135], in the data set with Pyricularia oryzae [1], the pest or weed control at 10 µg/mL was at least 80%. Further, in the data set on Pyricularia oryzae [2], the pest or weed control at 25 ppm was at least 80% and the pest or weed control at 200 ppm is at least 80%. Further, the “Control value (severity on the flag leaf)” value in the data set with wheat brown rust is on record as at least 50.
For the molecule `O=C(OCc1ccc(Cl)nc1)c1cc(Cl)nc(Cl)c1` [Comparative Example 5], in the data set with rice (cultivar: Jikkoku), the “Ratio of plant length relative to untreated plant length” value was 66.
Still for that read-out and setting: in the case of `O=C(O)c1cc(Cl)nc(Cl)c1` [Comparative Example 1] it was 49; in that of `O=C(NCCc1ccccc1)c1cc(Cl)nc(Cl)c1` [Comparative Example 3], 45.
For the molecule `O=C(COC(=O)c1cc(Cl)nc(Cl)c1)c1ccccc1` [Comparative Example 4], the “Ratio of plant length relative to untreated plant length” value with rice (cultivar: Jikkoku) was 64.
